The values below come from ChEMBL document CHEMBL4145509, “Unravelling the binding mechanism of benproperine with human serum albumin: A docking, fluorometric, and thermodynamic approach” (Eur J Med Chem, 2018).

Data set [1] has as its target T1, Albumin (Homo sapiens, UniProt P02768). As to the kind of experiment: Induction of conformational changes in human serum albumin assessed as reduction in alpha-helical content at HSA:compound ratio of 1:2 by CD spectral analysis (reference value: 52.6%). Also noted: scale not given: the % may be the effect or the level left.
Data set [2] has as its target T1, Albumin. Kind of data set: Binding affinity to human serum albumin assessed as fluorescence lifetime decay 1 at HSA:compound ratio of 1:2 after 1 hr by fluorescence spectroscopic analysis (reference value: 3.917 +/- 0.039 nanoseconds). The format is ADME. The note with it: isolated protein.
Data set [3] addresses T1, Albumin. As to the kind of experiment: Binding affinity to human serum albumin by isothermal titration microcalorimetry. The data set is classed as ADME. As to conditions: isolated protein. For orientation: ITC needs no label: the signal is the heat of the interaction.
Data set [4] has as its target T1, Albumin. Kind of data set: Binding affinity to human serum albumin assessed as fluorescence lifetime decay 3 at HSA:compound ratio of 1:2 after 1 hr by fluorescence spectroscopic analysis (reference value: 6.876 +/- 0.177 nanoseconds). The format is ADME. As to conditions: isolated protein.
Data set [5] deals with T1, Albumin. Kind of data set: Binding affinity to human serum albumin assessed as fluorescence lifetime decay 3 at HSA:compound ratio of 1:10 after 1 hr by fluorescence spectroscopic analysis (reference value: 6.876 +/- 0.177 nanoseconds). As to conditions: isolated protein. The format is ADME.
Data set [6] deals with T1, Albumin. As to the kind of experiment: Induction of conformational changes in human serum albumin assessed as reduction in alpha-helical content at HSA:compound ratio of 1:10 by CD spectral analysis (reference value: 52.6%). Also noted: scale not given: the % may be the effect or the level left.
The target of data set [7] is T1, Albumin. As to the kind of experiment: Binding affinity to human serum albumin assessed as fluorescence lifetime decay 2 at HSA:compound ratio of 1:10 after 1 hr by fluorescence spectroscopic analysis (reference value: 0.584 +/- 0.047 nanoseconds). The format is ADME. As to conditions: isolated protein.
Data set [8] has as its target T1, Albumin. Kind of data set: Binding affinity to human serum albumin assessed as binding constant after 1 hr at 37 degC by fluorescence spectroscopic analysis. The note with it: isolated protein. The data set is classed as ADME.
Data set [9] deals with T1, Albumin. Kind of data set: Binding affinity to human serum albumin assessed as fluorescence lifetime decay 1 at HSA:compound ratio of 1:10 after 1 hr by fluorescence spectroscopic analysis (reference value: 3.917 +/- 0.039 nanoseconds). The data set is classed as ADME. As to conditions: isolated protein.
For data set [10], the target named is T1, Albumin. As to the kind of experiment: Binding affinity to human serum albumin assessed as fluorescence lifetime decay 2 at HSA:compound ratio of 1:2 after 1 hr by fluorescence spectroscopic analysis (reference value: 0.584 +/- 0.047 nanoseconds). The data set is classed as ADME. The note with it: isolated protein.
For data set [11], the target named is T1, Albumin. As to the kind of experiment: Binding affinity to human serum albumin assessed as binding constant after 1 hr at 25 degC by fluorescence spectroscopic analysis. The data set is classed as ADME. The note with it: isolated protein.
Data set [12] concerns the target T1, Albumin. As to the kind of experiment: Binding affinity to human serum albumin assessed as Stern-Volmer quenching constant after 1 hr at 37 degC by fluorescence spectroscopic analysis. The format is ADME. The note with it: isolated protein.
Data set [13] has as its target T1, Albumin. Kind of data set: Binding affinity to human serum albumin assessed as Stern-Volmer quenching constant after 1 hr at 25 degC by fluorescence spectroscopic analysis. The data set is classed as ADME. As to conditions: isolated protein.

Structures are written as SMILES.

T1 sequence (P02768 whole entry): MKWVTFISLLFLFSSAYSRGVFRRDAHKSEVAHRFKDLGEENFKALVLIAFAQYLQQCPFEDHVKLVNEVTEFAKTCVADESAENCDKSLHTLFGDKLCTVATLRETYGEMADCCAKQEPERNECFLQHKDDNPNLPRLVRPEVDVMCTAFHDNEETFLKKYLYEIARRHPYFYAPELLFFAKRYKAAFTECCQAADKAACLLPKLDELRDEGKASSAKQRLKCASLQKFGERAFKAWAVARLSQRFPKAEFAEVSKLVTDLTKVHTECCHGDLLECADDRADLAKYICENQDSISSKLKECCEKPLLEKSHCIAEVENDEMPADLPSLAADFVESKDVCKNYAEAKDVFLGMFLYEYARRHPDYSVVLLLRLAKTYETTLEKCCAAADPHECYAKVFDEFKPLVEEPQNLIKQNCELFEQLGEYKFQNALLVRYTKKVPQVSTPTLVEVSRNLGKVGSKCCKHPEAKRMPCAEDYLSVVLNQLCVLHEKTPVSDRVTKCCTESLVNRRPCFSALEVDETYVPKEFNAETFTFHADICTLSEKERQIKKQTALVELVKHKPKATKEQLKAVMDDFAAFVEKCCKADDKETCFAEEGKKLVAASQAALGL

Regarding `CC(COc1ccccc1Cc1ccccc1)N1CCCCC1` (stereo not drawn) [BENPROPERINE], the Activity on Albumin [1] is listed as 49.06%; on Albumin [6] it was 47.88%. The Time at Albumin [2] is listed as 3.852 nanoseconds; at Albumin [4] it was 6.858 nanoseconds; on Albumin [5] it was 6.84 nanoseconds; on Albumin [7], 0.488 nanoseconds; at Albumin [9] it was 3.699 nanoseconds; on Albumin [10] it was 0.515 nanoseconds. In addition, the K on Albumin [3] is recorded as 1.97 ×10⁴ L/mol; at Albumin [8] it was 1.1 ×10⁴ L/mol; at Albumin [11] it was 2.01 ×10⁴ L/mol. In addition, the KSV on Albumin [12] is reported as 1.99 ×10⁴ L/mol; at Albumin [13], 2.74 ×10⁴ L/mol.
